# Laboratory results: patent US20250120967A1, “TYROSINE KINASES INHIBITORS AND USES THEREOF” (GREAT NOVEL THERAPEUTICS BIOTECH & MEDICALS CORPORATION, priority 2023, published 2025)
# Assays:
# Test in all cases: Tyrosine kinase inhibition assay
# Assay type in all cases: biochemical
# Settings in all cases: single concentration 1.0 μM, read-out: percent inhibition
# AKT1 (PKB alpha) = AKT1 (PKB alpha) (Homo sapiens, UniProt P31749)
# How it was run: (§1)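 Kinase activity was measured by Z′-LYTE peptide assay with ATP at the apparent Km, in kinase buffer (50 mM HEPES pH 7.5, 0.01% BRIJ-35, 10 mM MgCl2, 1 mM EGTA) with 1% DMSO final. Compounds were tested at a single 1.0 μM concentration and reported as percent inhibition; >80% counted as a hit.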
# BMX = molecular target: T1, BMX (Homo sapiens, UniProt P51813)
# T1 sequence (P51813 1-675): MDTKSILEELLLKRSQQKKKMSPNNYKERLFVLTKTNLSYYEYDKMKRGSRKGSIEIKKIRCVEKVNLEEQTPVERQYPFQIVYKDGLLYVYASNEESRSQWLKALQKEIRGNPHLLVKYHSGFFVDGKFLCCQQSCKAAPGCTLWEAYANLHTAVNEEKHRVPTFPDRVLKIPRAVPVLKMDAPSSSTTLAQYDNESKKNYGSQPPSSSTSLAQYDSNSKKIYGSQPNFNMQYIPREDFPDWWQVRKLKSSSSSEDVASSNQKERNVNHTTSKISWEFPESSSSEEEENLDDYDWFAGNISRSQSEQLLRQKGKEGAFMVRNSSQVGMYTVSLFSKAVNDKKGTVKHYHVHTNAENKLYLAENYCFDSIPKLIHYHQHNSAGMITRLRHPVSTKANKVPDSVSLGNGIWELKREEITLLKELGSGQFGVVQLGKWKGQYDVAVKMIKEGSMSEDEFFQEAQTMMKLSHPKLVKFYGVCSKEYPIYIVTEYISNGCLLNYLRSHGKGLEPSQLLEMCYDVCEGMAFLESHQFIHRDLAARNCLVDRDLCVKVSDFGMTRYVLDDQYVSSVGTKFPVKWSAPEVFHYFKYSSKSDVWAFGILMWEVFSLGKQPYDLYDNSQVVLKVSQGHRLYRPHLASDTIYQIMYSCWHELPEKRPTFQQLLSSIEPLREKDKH
# How it was run: as §1
# DDR2 = molecular target: T2, DDR2 (Homo sapiens, UniProt Q16832)
# T2 sequence (Q16832 22-855): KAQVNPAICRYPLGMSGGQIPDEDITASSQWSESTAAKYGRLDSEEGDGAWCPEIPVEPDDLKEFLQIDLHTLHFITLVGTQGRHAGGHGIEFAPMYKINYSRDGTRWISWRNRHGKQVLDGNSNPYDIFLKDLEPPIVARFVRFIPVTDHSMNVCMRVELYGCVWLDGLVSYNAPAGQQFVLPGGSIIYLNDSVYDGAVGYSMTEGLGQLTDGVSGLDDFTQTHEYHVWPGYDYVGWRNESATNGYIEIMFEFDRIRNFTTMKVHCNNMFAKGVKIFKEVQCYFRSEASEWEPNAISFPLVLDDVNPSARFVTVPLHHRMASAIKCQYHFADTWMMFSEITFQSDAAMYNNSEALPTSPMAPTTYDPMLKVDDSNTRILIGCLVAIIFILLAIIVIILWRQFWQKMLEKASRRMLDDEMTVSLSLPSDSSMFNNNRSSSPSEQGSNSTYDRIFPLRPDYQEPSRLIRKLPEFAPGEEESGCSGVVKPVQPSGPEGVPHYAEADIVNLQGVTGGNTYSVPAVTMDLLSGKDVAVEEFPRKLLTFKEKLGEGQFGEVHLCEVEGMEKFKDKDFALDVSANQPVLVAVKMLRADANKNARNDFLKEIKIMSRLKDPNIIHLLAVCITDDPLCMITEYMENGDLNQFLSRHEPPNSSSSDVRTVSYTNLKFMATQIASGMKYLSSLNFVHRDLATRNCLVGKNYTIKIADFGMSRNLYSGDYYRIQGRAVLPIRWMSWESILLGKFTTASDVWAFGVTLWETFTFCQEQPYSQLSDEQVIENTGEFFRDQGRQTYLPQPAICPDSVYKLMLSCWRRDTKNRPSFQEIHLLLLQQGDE
# How it was run: as §1
# EPHA5 = EPHA5 (Homo sapiens, UniProt P54756)
# Sequence of EPHA5 (P54756 25-1037): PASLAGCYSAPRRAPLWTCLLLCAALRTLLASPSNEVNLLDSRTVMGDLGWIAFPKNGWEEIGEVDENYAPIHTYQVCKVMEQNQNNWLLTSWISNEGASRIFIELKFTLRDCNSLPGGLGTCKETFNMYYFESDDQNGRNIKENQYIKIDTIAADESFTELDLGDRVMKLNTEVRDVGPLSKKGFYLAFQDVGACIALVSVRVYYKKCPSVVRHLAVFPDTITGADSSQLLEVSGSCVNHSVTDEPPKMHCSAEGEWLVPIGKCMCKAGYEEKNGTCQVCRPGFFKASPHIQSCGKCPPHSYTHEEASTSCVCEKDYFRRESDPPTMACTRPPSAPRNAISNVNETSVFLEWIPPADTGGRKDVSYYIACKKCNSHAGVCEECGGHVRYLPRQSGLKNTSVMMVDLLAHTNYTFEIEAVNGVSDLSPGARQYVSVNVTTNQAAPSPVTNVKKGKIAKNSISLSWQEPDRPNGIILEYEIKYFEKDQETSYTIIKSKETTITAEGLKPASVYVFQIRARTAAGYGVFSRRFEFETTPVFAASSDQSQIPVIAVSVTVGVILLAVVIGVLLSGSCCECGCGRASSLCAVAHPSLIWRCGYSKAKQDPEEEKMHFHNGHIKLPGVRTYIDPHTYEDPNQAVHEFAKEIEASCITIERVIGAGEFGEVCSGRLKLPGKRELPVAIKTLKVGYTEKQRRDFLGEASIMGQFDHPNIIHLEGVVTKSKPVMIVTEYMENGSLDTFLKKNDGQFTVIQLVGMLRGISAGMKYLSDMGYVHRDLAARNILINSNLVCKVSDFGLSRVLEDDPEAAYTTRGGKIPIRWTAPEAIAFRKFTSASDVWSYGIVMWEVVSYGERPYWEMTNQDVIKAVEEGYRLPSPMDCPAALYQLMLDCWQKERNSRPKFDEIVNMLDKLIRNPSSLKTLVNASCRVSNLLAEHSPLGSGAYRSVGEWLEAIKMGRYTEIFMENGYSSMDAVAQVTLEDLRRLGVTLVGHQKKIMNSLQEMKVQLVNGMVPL
# How it was run: as §1
# MUSK = molecular target: T3, MUSK (Homo sapiens, UniProt O15146)
# T3 sequence (O15146 24-869): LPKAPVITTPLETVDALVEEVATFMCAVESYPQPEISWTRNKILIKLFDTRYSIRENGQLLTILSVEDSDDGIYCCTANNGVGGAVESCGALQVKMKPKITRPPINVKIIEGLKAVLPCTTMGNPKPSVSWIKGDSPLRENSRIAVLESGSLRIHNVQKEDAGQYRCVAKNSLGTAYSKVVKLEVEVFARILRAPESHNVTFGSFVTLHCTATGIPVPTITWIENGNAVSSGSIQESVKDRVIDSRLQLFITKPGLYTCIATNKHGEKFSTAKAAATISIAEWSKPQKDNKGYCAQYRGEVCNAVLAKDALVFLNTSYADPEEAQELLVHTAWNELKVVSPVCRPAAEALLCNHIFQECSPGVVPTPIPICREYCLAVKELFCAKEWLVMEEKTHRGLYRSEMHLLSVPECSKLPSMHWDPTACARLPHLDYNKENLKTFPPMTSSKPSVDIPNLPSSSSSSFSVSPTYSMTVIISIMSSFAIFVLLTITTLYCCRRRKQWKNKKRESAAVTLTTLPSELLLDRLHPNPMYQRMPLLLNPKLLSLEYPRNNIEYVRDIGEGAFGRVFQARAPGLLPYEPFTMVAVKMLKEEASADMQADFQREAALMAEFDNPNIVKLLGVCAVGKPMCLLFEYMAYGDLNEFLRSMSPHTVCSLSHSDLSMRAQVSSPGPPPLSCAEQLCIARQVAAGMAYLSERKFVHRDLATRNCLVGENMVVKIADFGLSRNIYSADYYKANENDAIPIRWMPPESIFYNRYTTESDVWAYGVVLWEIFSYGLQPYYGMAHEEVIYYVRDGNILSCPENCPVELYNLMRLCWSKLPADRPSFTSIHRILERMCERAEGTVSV
# How it was run: as §1
# [1] = molecular target: PIK3CB/PIK3R1 (p110 beta/p85 alpha) (Homo sapiens, UniProt P42338)
# Sequence of PIK3CB/PIK3R1 (p110 beta/p85 alpha) (P42338 whole entry): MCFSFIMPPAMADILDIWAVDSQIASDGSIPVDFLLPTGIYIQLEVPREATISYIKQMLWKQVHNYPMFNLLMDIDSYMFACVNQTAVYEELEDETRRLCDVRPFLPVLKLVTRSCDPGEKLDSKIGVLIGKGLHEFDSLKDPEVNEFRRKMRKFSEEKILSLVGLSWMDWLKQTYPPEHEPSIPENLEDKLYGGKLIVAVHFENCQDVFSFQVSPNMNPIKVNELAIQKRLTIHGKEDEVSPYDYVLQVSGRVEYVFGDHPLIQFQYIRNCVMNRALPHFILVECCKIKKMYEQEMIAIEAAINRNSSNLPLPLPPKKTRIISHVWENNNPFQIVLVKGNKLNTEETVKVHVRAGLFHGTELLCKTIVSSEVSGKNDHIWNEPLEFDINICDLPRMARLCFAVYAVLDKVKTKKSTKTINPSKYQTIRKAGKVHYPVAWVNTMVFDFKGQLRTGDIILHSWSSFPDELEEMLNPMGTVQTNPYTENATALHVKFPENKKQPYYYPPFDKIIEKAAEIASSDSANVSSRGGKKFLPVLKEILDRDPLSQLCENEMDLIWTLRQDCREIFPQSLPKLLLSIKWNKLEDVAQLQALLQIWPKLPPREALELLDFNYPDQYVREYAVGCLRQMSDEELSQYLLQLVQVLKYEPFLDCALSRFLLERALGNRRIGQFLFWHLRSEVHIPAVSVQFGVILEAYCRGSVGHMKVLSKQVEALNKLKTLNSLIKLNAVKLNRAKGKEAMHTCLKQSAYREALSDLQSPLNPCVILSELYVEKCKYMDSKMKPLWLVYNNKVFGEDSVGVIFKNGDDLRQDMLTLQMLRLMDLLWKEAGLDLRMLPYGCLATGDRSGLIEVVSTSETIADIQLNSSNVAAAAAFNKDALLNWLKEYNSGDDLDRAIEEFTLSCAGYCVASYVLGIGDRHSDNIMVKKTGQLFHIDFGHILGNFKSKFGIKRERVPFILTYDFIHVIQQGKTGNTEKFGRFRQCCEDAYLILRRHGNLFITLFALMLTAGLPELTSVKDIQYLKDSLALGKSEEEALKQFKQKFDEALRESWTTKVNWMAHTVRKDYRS
# Sequence of PIK3CB/PIK3R1 (p110 beta/p85 alpha) (P27986 whole entry partner): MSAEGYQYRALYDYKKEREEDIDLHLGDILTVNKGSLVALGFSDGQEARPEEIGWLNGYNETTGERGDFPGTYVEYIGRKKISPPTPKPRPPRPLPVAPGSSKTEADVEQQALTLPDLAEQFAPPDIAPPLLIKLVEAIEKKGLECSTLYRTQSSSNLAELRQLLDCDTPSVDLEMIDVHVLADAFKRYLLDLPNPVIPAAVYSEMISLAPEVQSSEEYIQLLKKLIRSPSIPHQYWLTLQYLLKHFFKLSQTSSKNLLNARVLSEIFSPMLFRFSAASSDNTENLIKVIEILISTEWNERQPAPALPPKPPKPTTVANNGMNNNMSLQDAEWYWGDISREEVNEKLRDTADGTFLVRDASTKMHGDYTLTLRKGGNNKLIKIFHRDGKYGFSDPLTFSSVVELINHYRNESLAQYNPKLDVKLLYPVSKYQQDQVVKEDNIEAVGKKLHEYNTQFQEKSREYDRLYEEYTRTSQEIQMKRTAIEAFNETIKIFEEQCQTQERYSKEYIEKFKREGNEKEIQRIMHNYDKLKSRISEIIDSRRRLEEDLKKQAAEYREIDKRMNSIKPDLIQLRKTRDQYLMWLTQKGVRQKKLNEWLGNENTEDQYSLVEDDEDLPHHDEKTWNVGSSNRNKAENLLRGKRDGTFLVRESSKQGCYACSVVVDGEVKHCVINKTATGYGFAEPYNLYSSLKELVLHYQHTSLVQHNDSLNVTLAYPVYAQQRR
# How it was run: as §1
# Sequence of AKT1 (PKB alpha) (P31749 whole entry): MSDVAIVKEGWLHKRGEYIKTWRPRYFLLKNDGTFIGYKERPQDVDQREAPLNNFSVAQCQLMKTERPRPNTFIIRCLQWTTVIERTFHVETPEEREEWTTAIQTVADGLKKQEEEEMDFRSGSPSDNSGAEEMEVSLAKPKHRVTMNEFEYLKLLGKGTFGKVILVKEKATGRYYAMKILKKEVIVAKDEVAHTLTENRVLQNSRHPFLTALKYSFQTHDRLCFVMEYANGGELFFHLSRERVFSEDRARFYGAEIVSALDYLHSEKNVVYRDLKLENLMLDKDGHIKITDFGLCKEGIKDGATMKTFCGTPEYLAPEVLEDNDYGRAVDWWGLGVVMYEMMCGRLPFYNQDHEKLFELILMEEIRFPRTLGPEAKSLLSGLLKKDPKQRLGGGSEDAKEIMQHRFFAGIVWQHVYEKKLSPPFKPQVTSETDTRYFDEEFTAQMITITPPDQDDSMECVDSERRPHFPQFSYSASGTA
SMILES,inhibition at 1 µM (AKT1 (PKB alpha)) [%],inhibition at 1 µM (BMX) [%],inhibition at 1 µM (DDR2) [%],inhibition at 1 µM (EPHA5) [%],inhibition at 1 µM (MUSK) [%],inhibition at 1 µM [1] [%]
"COc1cc2nccc(Oc3ccc(NC(=O)C4(C(=O)Nc5ccc(F)cc5)CC4)cc3)c2cc1OC [Cabozantinib, reference compound]",3,36,100,100,92,2
"COc1cc2nccc(Oc3ccc(NC(=O)C4(NC(=O)c5ccc(F)cc5)CC4)cc3F)c2cc1OC [Cbo-02, N-(1-((4-((6,7-diMethoxyquinolin-4-yl)oxy)-3-fluorophenyl)carbamoyl)cyclopropyl)-4-fluorobenzamide]",2,22,32,41,31,3
COc1cc2nccc(Oc3ccc(NC(=O)C4(NC(=O)c5ccc(F)cc5)CC4)cc3F)c2cc1Oc1ccc(N)cc1F [Cbo-10],0,33,51,87,68,22
COc1cc2nccc(Oc3ccc(NC(=O)C4(NC(=O)c5ccc(F)cc5)CC4)cc3F)c2cc1Oc1c(F)cc(N)cc1F [Cbo-14],2,42,60,92,76,0
COc1cc2nccc(Oc3ccc(NC(=O)C4(C(=O)Nc5ccc(F)cc5)CC4)cc3F)c2cc1Oc1ccc(N)cc1F [Cbo-23],4,42,91,99,85,-4
